Test results published in PMC7424068, “Design, Synthesis, and Biological Evaluation of Novel Thiazolidinone-Containing Quinoxaline-1,4-di-N-oxides as Antimycobacterial and Antifungal Agents” (Frontiers in Chemistry, 2020).
Converted amounts (≈) assume the structure as drawn. Like-named read-outs stand apart in the source and are kept apart here.

Key:
[1] = test system: Mtb H37Rv (ATCC27294); assay: Antimycobacterial activity, microplate Alamar blue assay (MABA); assay type: cell-based, Mycobacterium tuberculosis
[2] = test system: C. albicans (ATCC90028); assay: Antifungal activity, broth microdilution; assay type: cell-based, Candida albicans; details: Candida albicans ATCC 90028, read-out: MIC
Protocol: (§1) All synthesized compounds and the positive control drugs amphotericin B and ketoconazole were tested for their in vitro antifungal activity. Antifungal activity was evaluated against four fungi, C. albicans (ATCC90028), C. tropicalis (ATCC7349), A. fumigatus (3.5352), and C. neoformans (2.3201), by broth microdilution according to the protocols from the NCCLS (Jiang et al., [2014]). Briefly, all tested compounds were dissolved in DMSO, and the solutions were diluted with fresh broth medium. All of the fungi-seeded broth (1 × 10^5 colony-forming units [CFU]/mL) were prepared in RPMI 1640 medium and added into the serially diluted drug solution. The tubes were incubated at 28°C, and the MIC (μg/mL) was recorded 72–96 h post-incubation. Broth control (without fungi), growth controls (with fungi and without drug), solvent (DMSO) control, and drug control for both test drugs and standard drugs were set under identical conditions. The minimum drug concentration in the tubes in which no apparent growth of the organism was observed represented the MIC of the compounds.

[3] = test system: C. neoformans (2.3201); assay: Antifungal activity, broth microdilution; assay type: cell-based; details: Cryptococcus neoformans; C. neoformans 2.3201; read-out: MIC
Protocol: as §1

[4] = test system: C. tropicalis (ATCC7349); assay: Antifungal activity, broth microdilution; assay type: cell-based; details: Candida tropicalis, C. tropicalis ATCC 7349, read-out: MIC
Protocol: as §1

[5] = test system: A. fumigatus (3.5352); assay: Antifungal activity, broth microdilution; assay type: cell-based; details: Aspergillus fumigatus; A. fumigatus 3.5352; read-out: MIC
Protocol: as §1

[6] = Mycobacterium tuberculosis, Mtb H37Rv, MABA assay, read-out: MIC
[7] = Mycobacterium tuberculosis, Mtb H37Rv, repeated in Table 5 for the 3D-QSAR models, read-out: MIC
[8] = Mycobacterium tuberculosis, experimental pMIC, Mtb H37Rv, Table 5, read-out: pMIC exp (converted)

SMILES	MIC [1, 6] [µg/mL]	MIC [1, 7] [µg/mL]	MIC [1, 8] [µM]	MIC [2] [µg/mL]	melting point [°C]	MIC [3] [µg/mL]	MIC [4] [µg/mL]	MIC [5] [µg/mL]	MIC ([1]; Mtb H37Rv, MABA assay) [µg/mL]	MIC ([1]; Mycobacterium tuberculosis) [µg/mL]
COc1ccc2c(c1)[n+]([O-])c(C1SCC(=O)N1c1ccc(C)cc1)c[n+]2[O-] (stereo not shown) [2m, 7-OMe-2-(3′-P-methylphenyl-4′(5H)-thiazolidinone)-quinoxaline-1,4-di-N-oxide]	100	100	261	> 64	257 to 259	> 64	64 (≈ 167 µM)	> 64	–	–
O=C1CSC(c2c[n+]([O-])c3ccccc3[n+]2[O-])N1 (stereo not shown) [VI, 2-(4'(5H)-thiazolone)-quinoxaline-1,4-di-N-oxide]	6.25	–	–	–	–	–	–	–	–	–
COc1ccc(N2C(=O)CSC2c2c[n+]([O-])c3ccc(OC)cc3[n+]2[O-])cc1 (stereo not shown) [2n, 7-OMe-2-(3′-P-methoxyphenyl-4′(5H)-thiazolidinone)-quinoxaline-1,4-di-N-oxide]	200	200	501	> 64	258 to 260	> 64	64 (≈ 160 µM)	> 64	–	–
O=C1CSC(c2c[n+]([O-])c3ccccc3[n+]2[O-])N1C1CC1 (stereo not shown) [2f, 2-(3′-cyclopropyl-4′(5H)-thiazolidinone)-quinoxaline-1,4-di-N-oxide]	25	25	82.4	32 (≈ 105 µM)	249 to 252	64 (≈ 211 µM)	16 (≈ 52.7 µM)	64 (≈ 211 µM)	–	–
Cc1ccc(N2C(=O)CSC2c2c[n+]([O-])c3ccc(F)cc3[n+]2[O-])cc1 (stereo not shown) [2r, 7-F-2-(3′-P-methylphenyl-4′(5H)-thiazolidinone)-quinoxaline-1,4-di-N-oxide]	12.5	12.5	33.7	8 (≈ 21.5 µM)	249 to 251	16 (≈ 43.1 µM)	8 (≈ 21.5 µM)	8 (≈ 21.5 µM)	–	–
COc1ccc2c(c1)[n+]([O-])c(C1SCC(=O)N1c1ccc(Cl)cc1)c[n+]2[O-] (stereo not shown) [2p, 7-OMe-2-(3′-P-chlorophenyl-4′(5H)-thiazolidinone)-quinoxaline-1,4-di-N-oxide]	50	50	124	64 (≈ 158 µM)	253 to 256	32 (≈ 79.2 µM)	64 (≈ 158 µM)	> 64	–	–
COc1ccc2c(c1)[n+]([O-])c(C1SCC(=O)N1c1ccccc1)c[n+]2[O-] (stereo not shown) [2l, 7-OMe-2-(3′-phenyl-4′(5H)-thiazolidinone)-quinoxaline-1,4-di-N-oxide]	100	100	271	64 (≈ 173 µM)	254 to 258	> 64	32 (≈ 86.6 µM)	> 64	–	–
COc1ccc2c(c1)[n+]([O-])c(C1SCC(=O)N1c1ccc(F)cc1)c[n+]2[O-] (stereo not shown) [2o, 7-OMe-2-(3′-P-fluorophenyl-4′(5H)-thiazolidinone)-quinoxaline-1,4-di-N-oxide]	50	50	129	64 (≈ 165 µM)	255 to 257	32 (≈ 82.6 µM)	64 (≈ 165 µM)	64 (≈ 165 µM)	–	–
COc1ccc(N2C(=O)CSC2c2c[n+]([O-])c3ccc(F)cc3[n+]2[O-])cc1 (stereo not shown) [2s, 7-F-2-(3′-P-methoxyphenyl-4′(5H)-thiazolidinone)-quinoxaline-1,4-di-N-oxide]	25	25	64.6	8 (≈ 20.7 µM)	251 to 253	8 (≈ 20.7 µM)	8 (≈ 20.7 µM)	8 (≈ 20.7 µM)	–	–
N=C1NC(=O)/C(=C/c2c[n+]([O-])c3ccccc3[n+]2[O-])S1 [V, 2-(2′-iminothiazolidin-4′-one)-quinoxaline-1,4-di-N-oxide]	> 50	–	–	–	–	–	–	–	>50	–
CO[C@H]1/C=C/O[C@@]2(C)Oc3c(C)c(O)c4c(O)c(c(/C=N/N5CCN(C)CC5)c(O)c4c3C2=O)NC(=O)/C(C)=C\C=C\[C@H](C)[C@H](O)[C@@H](C)[C@@H](O)[C@@H](C)[C@H](OC(C)=O)[C@@H]1C [RMP, Rifampicin, reference compound]	–	–	–	–	–	–	–	–	–	0.125
Cc1ccc(N2C(=O)CSC2c2c[n+]([O-])c3ccc(C)cc3[n+]2[O-])cc1 (stereo not shown) [2h, 7-CH3-2-(3′-P-methylphenyl-4′(5H)-thiazolidinone)-quinoxaline-1,4-di-N-oxide]	25	25	68.1	32 (≈ 87.1 µM)	257 to 259	32 (≈ 87.1 µM)	8 (≈ 21.8 µM)	64 (≈ 174 µM)	–	–
Cc1ccc2c(c1)[n+]([O-])c(C1SCC(=O)N1c1ccccc1)c[n+]2[O-] (stereo not shown) [2g, 7-CH3-2-(3′-phenyl-4′(5H)-thiazolidinone)-quinoxaline-1,4-di-N-oxide]	12.5	12.5	35.4	32 (≈ 90.5 µM)	255 to 257	32 (≈ 90.5 µM)	16 (≈ 45.3 µM)	32 (≈ 90.5 µM)	–	–
COc1ccc(N2C(=O)CSC2c2c[n+]([O-])c3ccccc3[n+]2[O-])cc1 (stereo not shown) [2c, 2-(3′-P-methoxyphenyl-4′(5H)-thiazolidinone)-quinoxaline-1,4-di-N-oxide]	12.5	12.5	33.9	64 (≈ 173 µM)	255 to 257	32 (≈ 86.6 µM)	32 (≈ 86.6 µM)	> 64	–	–
Cc1ccc(N2C(=O)CSC2c2c[n+]([O-])c3ccccc3[n+]2[O-])cc1 (stereo not shown) [2b, 2-(3′-P-methylphenyl-4′(5H)-thiazolidinone)-quinoxaline-1,4-di-N-oxide]	12.5	12.5	35.4	16 (≈ 45.3 µM)	251 to 253	32 (≈ 90.5 µM)	8 (≈ 22.6 µM)	32 (≈ 90.5 µM)	–	–
